“Also recorded” adds a separate entry of the source.
Key:
A2058 melanoma cells = test: Matrigel cell invasion assay, melanoma cells; type: cell-based, human; details: A2058, 50 nM ATX
Method: All cell media was supplemented with 10% (v/v) fetal calf serum (FCS) (Gibco) and 1% (v/v) L-glutamine (Gibco) and grown at 37° C. in a humidified atmosphere containing 5% CO2.
(§1) Cell invasion assays: Matrigel matrix (1 mg/ml, Becton Dickenson) was added to […] gelatin-coated membranes placed in cell culture inserts (BD Falcon) and allowed to set for 24 hours at room temperature. The inserts were placed into companion 24 well plates (BD Falcon), and chemo-attractants (ATX ±inhibitors) and/or controls were added to the bottom of the wells. Cells (1×10^6) were added to the inserts and incubated for 3 hours at 37° C. Following incubation, the inserts were removed, fixed in 100% methanol, stained with DiffQuick solution, and mounted on glass slides. Non-invading cells were removed by scraping away the matrigel, and migrating cells were quantitated by counting cell number per high-powered field.

[1] = test system: ovarian carcinoma cells R182; test: Matrigel cell invasion assay, primary ovarian cancer cells; type: cell-based, human; details: 50 nM ATX
Method: Cell culture: Human melanoma cells, A2058 (ATCC), were grown in Dulbecco's Modified Eagle's Medium (DMEM) (Gibco), MeI 28 (ATCC), YUSAC2 (Yale University) and MeI-888 (Yale University) were grown in OptiMEM media (Gibco), and HTB 63 (ATCC) were grown in McKoy's 5a medium (ATCC). Human breast adenocarcinoma cells, MDA-MB-231(ATCC) and ovarian carcinoma cells R182 (Gil Mor, Yale University) were grown in RPMI-1640 (Gibco). All cell media was supplemented with 10% (v/v) fetal calf serum (FCS) (Gibco) and 1% (v/v) L-glutamine (Gibco) and grown at 37° C. in a humidified atmosphere containing 5% CO2.
as §1

[2] = test system: melanoma cell line HTB 63; test: Cell migration assay, melanoma cell line HTB 63; type: cell-based, human
Method: 9B. […] All error bars in this figure indicate the standard error of the mean for nine replicates. The addition of LPA to the experimental groups containing inhibitors (LPA rescue) completely abrogated the small molecule inhibitory effect on cell motility (see discussion). […] Cell culture: Human melanoma cells, A2058 (ATCC), were grown in Dulbecco's Modified Eagle's Medium (DMEM) (Gibco), MeI 28 (ATCC), YUSAC2 (Yale University) and MeI-888 (Yale University) were grown in OptiMEM media (Gibco), and HTB 63 (ATCC) were grown in McKoy's 5a medium (ATCC). Human breast adenocarcinoma cells, MDA-MB-231(ATCC) and ovarian carcinoma cells […] (Gil Mor, Yale University) were grown in RPMI-1640 (Gibco). All cell media was supplemented with 10% (v/v) fetal calf serum (FCS) (Gibco) and 1% (v/v) L-glutamine (Gibco) and grown at 37° C. in a humidified atmosphere containing 5% CO2. Cell motility assays: […] Chemo-attractant (ATX ±inhibitor) and/or controls were placed in the lower half of the chamber, and the cells in the upper chamber. […] Non-migrating cells were removed from the membrane by scraping the top surface. The cells were quantitated by counting the cell number per high powered field in the various wells. Treatments were compared using a chi squared test.

[3] = oral doses of 50 mg/kg in 3 divided alternate daily doses for 5 days; rabbits, dogs, and humans; cited from earlier work
[4] = oral, ref. [43]; cited from earlier work
ATX lyso-PLD activity = molecular target: T1, ATX lyso-PLD activity (Homo sapiens, UniProt Q13822); test: Time course assay of ATX lyso-PLD activity (FS-3 fluorescent product) with or without 10 μM compound over 30 minutes; type: biochemical; details: 10 μM inhibitor, 30 minute interval, 300 nM ATX
T1 construct: consistent with a mature, glycosylated form of the enzyme; TEV cleavage site (C); 9-His (C); 6-His (C); made in house; host or cells: High Five insect cells (baculovirus, p-DEST-8)
Method: C. Structure of hexachlorophene, merbromin. Bithionol and their analogs -2,2′-Methylenebis(4-chlorophenol), Eosin Y and RJC 03297, respectively. D. Structure of NSC 48300 and its analogs. […] The assay conditions are 300 nM ATX in the presence or absence of 10 μM compound over 30 minutes.
Inhibitor screen: High throughput screens were performed against two libraries: the GenPlus library of 960 compounds (NINDS Custom Collection, MicroSource Discovery systems) and the NCI Diversity Set (1990 compounds, see http://dtp.nci.nih.gov/branches/dscb/repo_open.html). The screens were performed at the Yale Center for Chemical Genomics utilizing a Tecan Aquarius robot in combination with an Aquarius liquid handler and a Freedom EVO Workstation. A V&P Scientific 384 pin tool transferred small molecules (10 mM stock) from library plates into the optically clear, 384 well assay plates, and an Aquarius liquid handling robot transferred protein into the individual wells. The assays were performed in a total volume of 50 μL in assay buffer (50 mM Tris, 140 mM NaCl, 1 mM MgCl2, and 5 mM CaCl2, pH 8.0). Absorbance of p-nitrophenylate, the product of ATX's PDE activity with pNP-TMP (discussed below) was measured at 405 nm over a period of 12 hours. To monitor lysophospholipase-D activity, the fluorescence of FS-3 (625 nM or 4 μM) was monitored (λex=480 nm, λem=535 nm) in assay buffer over a period of 30 minutes in the presence of 300 nM ATX and 10 μM compound. The assay was evaluated using a statistical Z′ analysis, a quantitative measure to determine assay robustness for single point analysis on a high throughput screening platform. The Z′ analysis was performed from 32 maximum control values (c+) and 32 minimum controls (c−) on each plate. Assays consistently performed with Z′ factors of 0.75-0.85, higher than the minimum 0.5 considered robust.
Inhibition of ATX lyso-PLD activity by several NSC48300 analogs was qualitatively compared in a time course assay by measuring the production of fluorescent product in the presence or absence of 10 µM inhibitor over a 30 minute interval.

Oc1c(Cl)cc(Cl)cc1Sc1cc(Cl)cc(Cl)c1O [Bithionol]
inhibition of ATX-induced stimulation of melanoma cell invasion (A2058 melanoma cells): inhibited in a dose-dependent manner; also recorded: could be reduced | reduction of ATX-stimulated ovarian cancer cell invasion [1]: could be reduced | inhibition of ATX-stimulated HTB63 cell migration ([2]; 50 nM ATX, 3 hours): can be inhibited | LPA rescue of inhibited HTB63 cell migration ([2]; excess LPA (75 nM)): rescued by excess LPA | serum levels [3]: 140 to 550 µM | dose that can be safely dosed in humans [4]: 25 mg kg^−1 body weight per day

O=[As](O)(O)c1ccc(Cc2ccc([As](=O)(O)O)cc2)cc1 [NSC 48300]
less product formation when compared to the enzyme alone (ATX lyso-PLD activity): 98.0% | inhibition of ATX-induced stimulation of melanoma cell invasion (A2058 melanoma cells): inhibited in a dose-dependent manner | inhibition of ATX-induced stimulation of melanoma cell invasion (A2058 melanoma cells; listed as NSC48300): could be reduced | reduction of ATX-stimulated ovarian cancer cell invasion [1]: could be reduced

Source: patent US20110110886A1, “SMALL MOLECULE INHIBITORS OF AUTOTAXIN AND METHODS OF USE” (Yale University, priority 2008, published 2011)
